# According to US7745473B2, “Indole derivative for alkylating specific base sequence of DNA and alkylating agent and drug containing the derivative” (Kyoto University, priority 2004, dated 2010):
# “Also recorded” adds a separate entry of the source.
# Experiments:
# [1] = test system: DNA fragment (446 bp; SEQ ID NO:17) containing 24 repeats of a telomeric sequence; assay: DNA alkylation targeting telomeric sequence; format: biochemical; conditions: 446 bp fragment, nanomolar concentrations, FIG. 8
# Method: A 5′-Texas Red-labeled 446-bp DNA fragment (SEQ ID NO:17 with a 24-times-repeated telomere sequence was prepared by a PCR method using a 5′-Texas Red-labeled 20-base pair primer, i.e., 5′-TexRed-[…]-3′ (SEQ ID NO:18), and a 20-base-pair primer, i.e., 5′-[…]-3′ (SEQ ID NO:19), pCR2.1 plasmid into which an oligomer having a repetitive telomere sequence was integrated from the cleavage site by EcoRI being used as a template. The resulting each DNA fragment was purified by filtration using Suprec-02. The concentration of each resulting product was determined by measuring UV absorption.
# Analysis by polyacrylamide gel electrophoresis was performed by the following process: A standard reaction solution containing the 5′-Texas Red-end-labeled DNA fragment (10 nM), DMF (10% (v/v)), and an agent having a concentration described above in a sodium phosphate buffer (5 mM, total volume: 10 μL, pH=7.0) was charged into a microfuge tube (Eppendorf) and left standing at 23° C. for 8 hours. After completion of the reaction, the reaction was quenched by the addition of calf thymus DNA (1 mM, 1 μL). The resulting mixture was shaken at 90° C. for 5 minutes. The DNA obtained by centrifugation under reduced pressure was dissolved by the addition of 8 μl, of loading dye (fushin red solution in DMF), shaken at 94° C. for 20 minutes, and then immediately cooled to 0° C. […]
# [2] = test system: long-chain DNA (pUC-II; SEQ ID NO:4, pUC-I′; SEQ ID NO:1); assay: DNA alkylation of 5′-Texas Red-labeled long-chain DNA, analysed by polyacrylamide gel electrophoresis; format: biochemical; conditions: 8 hours, pUC-II and pUC-I′, FIG. 2
# Method: A 5′-Texas Red-labeled DNA fragment (450 bp) (pUC-I′, SEQ ID NO:1) was prepared by a PCR method using a 5′-Texas Red-labeled 20-base-pair primer, i.e., 5′-TexRed-[…]-3′ (pUC18 forward, 780-799; SEQ ID NO:2), and a 20-base-pair primer, i.e., 5′-[…]-3′ (pUC18 reverse, 1459-1478; SEQ ID NO:3), puc18 being used as a template. The DNA fragment was in a double-stranded state including a complementary strand (the following fragments were in the same state).
# A 5′-Texas Red-labeled DNA fragment (450 bp) (pUC-II, SEQ ID NO:4) was prepared by a PCR method using a 5′-Texas Red-labeled 21-base-pair primer, i.e., 5′-TexRed-[…]-3′ (pUC18 reverse, 1861-1881; SEQ ID NO:5), and a 19-base-pair primer, i.e., 5-TGTAAAACGACGGCCAGTG-3′ (pUC18 forward, 328-345; SEQ ID NO:6), puc18 being used as a template.
# (§1) Analysis by polyacrylamide gel electrophoresis was performed by the following process: A standard reaction solution containing the 5′-Texas Red-end-labeled DNA fragment (10 nM), DMF (10% (v/v)), and an agent having a concentration described above in a sodium phosphate buffer (5 mM, total volume: 10 μL, pH=7.0) was charged into a microfuge tube (Eppendorf) and left standing at 23° C. for 8 hours. After completion of the reaction, the reaction was quenched by the addition of calf thymus DNA (1 mM, 1 μL). The resulting mixture was shaken at 90° C. for 5 minutes. The DNA obtained by centrifugation under reduced pressure was dissolved by the addition of 8 μl, of loading dye (fushin red solution in DMF), shaken at 94° C. for 20 minutes, and then immediately cooled to 0° C. A 2-μL aliquot was separated electrophoretically on a 6% denaturing polyacrylamide gel using a Hitachi 5500-S DNA sequencer. The following tests were conducted in a similar way.
# The reaction of compounds (3-2) and (3-3) prepared in the above-described Synthesis Examples with DNA was studied using the long-chain DNA (pUC-II; SEQ ID NO:4, pUC-I′; SEQ ID NO:1). An alkylation reaction was performed for 8 hours. The sequence alkylated was analyzed by polyacrylic gel electrophoresis for sequence determination. […] However, the difference in sequence recognition ability was observed. […] From the stand point of the sequence recognition ability, the molecular design of compound (3-2) was excellent.
# [3] = test system: long-chain DNA (λ-F10906; SEQ ID NO:8); assay: as above; format: biochemical; conditions: λ-F10906, nanomolar concentrations, FIG. 4
# Method: A 5′-Texas Red-labeled DNA fragment (537 bp) (λ-F10906; SEQ ID NO:8) was prepared by a PCR method using a 5′-Texas Red-labeled 23-base-pair primer, i.e., 5′-TexRed-[…]-3′ (λ-DNA forward, 10960-10982; SEQ ID NO:9), and a 20-base-pair primer, i.e., 5′-[…]-3′ (λ-DNA reverse, 37007-37026; SEQ ID NO:10), λ-DNA being used as a template.
# as §1
# The reaction of compounds (3-2), (3-4), and (3-5) with DNA was studied using the long-chain DNA (λ-F10906; SEQ ID NO:8). The DNA-alkylating ability of each compound was evaluated.
# [4] = test system: HCT-116 (human colon cancer-derived cell); conditions: read-out: 50% cell growth inhibitory concentration (IC50); HCT-116, 48 hours, 0.1% DMF
# Method: (§2) HCT-116 (human colon cancer-derived cell), HeLa (human cervical cancer-derived cell), HLC-2 (human lung cancer-derived cell), and SH-SY-5Y (human neuroblast-derived cell) were treated with AcImImPyPy-γ-ImPy-Indole-CBI (3-2) (10^−5 to 10^−8 M with 0.1% DMF) for 48 hours to evaluate the effect of the compound as an anticancer agent.
# (§3) Evaluation of anticancer activity was made by the following process: HCT-116, HeLa, HLC-2, and SH-SY-5Y cell lines were seeded into a 96-well flat bottom plate in complete media [RPMI1640 (HCT-116, SH-SY-5Y; Sigma-Aldrich Co.) each containing 10% fetal bovine serum and Dulbecco's […] (HeLa, HLC-2, 293T, WI-38; Sigma-Aldrich Co.)] at cell densities of 4.0×10^3, 3.6×10^3, 1.6×10^3, 7.0×10^2, 5.0×10^2, and 8.0×10^2 cells/well and were precultured for 24 hours in a CO2 incubator. The media were replaced with complete media containing 0.1% DMF and 10^−5 to 10^−8 M AcImImPyPy-γ-ImPy-Indole-CBI (3-2). Incubation was performed for 48 hours in the CO2 incubator. Then, 10 μL/well of a Cell Counting Kit-8 (Dojindo Laboratories) was added. The specimens were left standing for 2 hours in the CO2 incubator. Absorbance was measured with a microplate reader MPR-A4I (Tosoh Corp.).
# [5] = test system: HLC-2 (human lung cancer-derived cell); conditions: read-out: 50% cell growth inhibitory concentration (IC50); HLC-2, 48 hours, 0.1% DMF
# Method: as §2, §3
# [6] = test system: HeLa (human cervical cancer-derived cell); conditions: read-out: 50% cell growth inhibitory concentration (IC50), 48 hours, 0.1% DMF
# Method: as §2, §3
# [7] = test system: SH-SY-5Y (human neuroblast-derived cell); conditions: read-out: 50% cell growth inhibitory concentration (IC50), 48 hours, 0.1% DMF
# Method: as §2, §3
# [8] = test system: cancerous cell lines versus normal cell lines; conditions: cancerous versus normal cell lines (293T, WI-38)
# Method: as §2, §3
# [9] = test system: 39 cultured human cancer cell lines; assay: Anticancer activity screening on 39 cultured human cancer cell lines (Japanese Foundation for Cancer Research); conditions: mean of 39 cultured human cancer cell lines
# Description: Evaluation of the anticancer activity on the 39 cultured human cancer cell lines from breast cancer cell line to prostate cancer cell line was made by screening test performed in The Japanese Foundation for Cancer Research.
# [10] = test system: 727-bp DNA fragment (SEQ ID NO:14); assay: Sequence-specific alkylation of DNA by polyamide heterodimer; format: biochemical; conditions: 727-bp fragment, FIG. 7
# Method: A 5′-Texas Red-labeled 727-bp DNA fragment (SEQ ID NO:14) was prepared by a PCR method using a 5′-Texas Red-labeled 20-base-pair primer, i.e., 5′-TexRed-[…]-3′ (SEQ ID NO:15), and a 21-base-pair primer, i.e., 5′-[…]-3′ (SEQ ID NO:16), a plasmid containing MLP into which the code base sequence of human β-globin was integrated being used as a template.
# as §1, with “way. […]” for “way.”
# 5′-YG(A/T)CR-3′ sequence = conditions: low concentration, dimer, both chains, sites 5 base pairs apart; cited from earlier work
# [11] = test system: DNA fragment (SEQ ID NO:11) derived from pQBI63; assay: DNA alkylation of 5′-Texas Red-labeled DNA fragment (994 bp); format: biochemical; conditions: FIG. 5
# Method: A 5′-Texas Red-labeled DNA fragment (994 bp) (pQBI63; SEQ ID NO:11) was prepared by a PCR method using a 20-base-pair primer, i.e., 5′-[…]-3′ (SEQ ID NO:12), and a 5′-Texas Red-labeled 20-base-pair primer, i.e., 5′-TexRed-[…]-3′ (SEQ ID NO:13), pQBI63 plasmid being used as a template.
# as §1, with “way. […]” for “way.”
compound,measurement,setting,value
"CC(=O)Nc1cn(C)c(C(=O)Nc2cn(C)c(C(=O)Nc3cn(C)c(C(=O)NCCCC(=O)Nc4cc(C(=O)Nc5cc(C(=O)Nc6ccc7[nH]c(C(=O)N8CC(CCl)c9c8cc(O)c8ccccc98)cc7c6)n(C)c5)n(C)c4)n3)n2)n1 (stereo not shown) [compound (4-3), AcImImIm-γ-PyPy-Indole-seco-CBI]",telomeric-sequence-specific alkylation,[1],Efficient telomeric-sequence-specific alkylation (5′-ACCCTA-3′) in a hairpin mode of recognition
AcImImPyPy-γ-ImPy-Indole-CBI [compound (3-2)],alkylated sites (sequence recognition ability),[2],"alkylation in only site 3 (5′-TGACCA-3′) and site 6 (5′-AGTCCA-3′), which were match sequences, was observed"
same,efficiency of DNA alkylation,[2],efficient DNA alkylation comparable with that of a known Py-Im polyamide having a vinyl linker was observed at nanomolar concentrations
same,"sequence-specific DNA alkylation, alkylated sites",[3],"Sequence-specific DNA alkylation (site 2 and 3: 5′-TGACCA-3′, site 4: 5′-AGACCA-3′, site 5: 5′-TGTCCA-3′)"
same,IC50,[4],74.2 nM
same,IC50,[5],53.5 nM
same,IC50,[6],59.7 nM
same,IC50,[7],7.43 nM
same,anticancer activity against the cancerous cell lines relative to the normal cell lines,[8],about 10 times
same,mean log IC50 value of 39 cell lines,"[9]; log value, FIG. 9",about −7
same,IC50,"[9]; read-out: mean IC50 of 39 cell lines, printed in brackets after the log value",~100 nM
"CC(=O)Nc1cn(C)c(C(=O)Nc2cn(C)c(C(=O)Nc3cc(C(=O)NCCC(=O)Nc4cn(C)c(C(=O)Nc5cc(C(=O)Nc6ccc7[nH]c(C(=O)N8CC9CC9%10C8=CC(=O)c8ccccc8%10)cc7c6)n(C)c5)n4)n(C)c3)n2)n1 (stereo not drawn) [compound (3-7), AcImImPy-β-ImPy-Indole-CBI]",alkylated sites in the presence of compound (6),"[10]; compound (6) 500 nM, heterodimer",alkylation (site 4) based on accurate 10-base-pair recognition was observed
same,"alkylated sites, compound alone",[10]; nanomolar concentrations,efficient alkylation of sites 1 and 2 based on a hairpin mode of recognition and of site 3 based on a linear-chain mode of recognition
ImPyLDu86,alkylation efficiency,5′-YG(A/T)CR-3′ sequence,70%
"CC(=O)Nc1cn(C)c(C(=O)Nc2cn(C)c(C(=O)Nc3cc(C(=O)Nc4cc(C(=O)NCCC(=O)Nc5cc(C(=O)Nc6cc(C(=O)NCCCC(=O)Nc7cn(C)c(C(=O)Nc8cc(C(=O)NCCC(=O)Nc9cn(C)c(C(=O)Nc%10cc(C(=O)Nc%11ccc%12[nH]c(C(=O)N%13CC%14CC%14%15C%13=CC(=O)c%13ccccc%13%15)cc%12c%11)n(C)c%10)n9)n(C)c8)n7)n(C)c6)n(C)c5)n(C)c4)n(C)c3)n2)n1 (stereo not shown) [compound (3-6), AcImImPyPyβPyPy-γ-ImPyβImPy-Indole-CBI]",alkylated sites (sequence recognition),[11],alkylation (site 2) due to 1-bp-mismatch recognition was observed; also recorded: alkylation of AT-rich base sequences (sites 1 and 3) was also observed
same,efficiency of DNA alkylation,[11],"efficiently alkylated 1,000-base-pair DNA at nanomolar concentrations"
